{"source": "patent US11091498B2", "about": "“Topoisomerase poisons” (Rutgers, The State University of New Jersey, priority 2016, dated 2021)", "test_system": "KBH5.0 (a variant that overexpresses BCRP)", "assay": "Test B. Efflux Assay: relative cytotoxicity, parent KB3-1 vs KBH5.0", "assay_type": "cell-based", "settings": "relative cytotoxicity between parent KB3-1 and variant KBH5.0 cell lines", "procedure": "The ability of a compound described herein to be actively transported can be determined using pharmacological models that are well known in the art, for example, using a model like test B described below.\nThe cytotoxicity of the representative compounds of the invention were also tested against cell line KB3-1 (parent cell line), KBV-1 (a variant that overexpresses efflux transporter MDR1) and KBH5.0 (a variant that overexpresses BCRP). Differences in the relative cytotoxicity between the parent and variant cell lines may be indicative of a compound that is a substrate for an efflux transporter. […] Accordingly, compounds of the invention may be useful to treat tumors that are resistant to other anticancer agents, including anticancer agents that are susceptible to efflux by BCRP (e.g. anthracyclines, mitoxantrone, topotecan, irinotecan, bisanthrone, doxorubicin, daunorubicin, and epirubin.", "data": [{"smiles": "COc1cc2c(=O)n(CCN(C)C(=O)C3CCN(C)CC3)c3c4cc5c(cc4ncc3c2cc1OC)OCO5", "note": "[Example 2]", "values": [{"measurement": "substrate for efflux transporter BCRP", "value": "not a substrate for BCRP"}]}]}
